From ChEMBL document CHEMBL1126780, “Selective non-nucleoside HIV-1 reverse transcriptase inhibitors. New 2,3-dihydrothiazolo[2,3-a]isoindol-5(9bH)-ones and related compounds with anti-HIV-1 activity” (J Med Chem, 1993) come the findings set out here.

Experiment [1] concerns the target Human immunodeficiency virus type 1 reverse transcriptase (Human immunodeficiency virus 1, UniProt Q72547). Nature of the experiment: Inhibitory activity against HIV-1 reverse transcriptase (HIV-RT).
Experiment [2] relates to MT2. Nature of the experiment: Inhibitory concentration which prevents the spread of HIV-1 IIIB infection in MT2 T-lymphoid cells. Type of experiment: functional, cell-based. The settings on record: Homo sapiens.

Structures can show the parent of a compound that is named as a salt. Bounds are passed on as bounds.

A word on the IC50: it is the concentration at which inhibition is half-maximal. A low value points to greater potency in that assay. `O=C(O)[C@H]1CSC2(c3ccccc3)c3ccccc3C(=O)N12` (stereo not given in full) gave an IC50 in experiment [1] of more than 100 µM.
As to `CCc1cc(NCc2nc3c(Cl)ccc(Cl)c3o2)c(O)nc1C` [L-697661], the IC50 in experiment [1] was determined as 0.001 µM; in experiment [2], 0.08 µM.
`O=C1c2cc3ccccc3cc2C2(c3ccccc3)SCCN12` (stereo not given): in experiment [1], the IC50 is 10 µM.
For the molecule `Cc1cccc(C23SCCN2C(=O)c2ccccc23)n1` (stereo not given), inhibition in experiment [1] was half-maximal at 4.1 µM (IC50).
On the same count and under the same terms, under `O=C1c2ccccc2C2(c3ccc(Cl)c(Cl)c3)SCCN12` (stereo not given) stands 4 µM.
The same measure, in the same setting: under `COc1ccc2c(c1)C(=O)N1CCSC21c1ccccc1` (stereo not given) stands 4 µM.
Same read-out and setting: under `O=C1c2ccccc2C2(c3ccc(Cl)cc3)SCCN12` (stereo not given) stands 4 µM; under `O=C1c2ccccc2C2(c3ccco3)SCCN12` (stereo not given), 1.35 µM.
`O=C1c2ccc3ccccc3c2C2(c3ccccc3)SCCN12` (stereo not given) displayed an IC50 in experiment [1] of 26 µM.
In turn, `CCc1cccc(C23SCCN2C(=O)c2ccccc23)c1` (stereo not given) displayed an IC50 in experiment [1] of 1.1 µM.
On to `O=C1c2ccccc2[C@@]2(c3cccc4ccccc34)SCCN12`, for which the figures for the IC50 in experiment [1] and in experiment [2] were 0.15 µM and 0.046 µM, respectively.
`O=C1c2ncccc2C2(c3ccccc3)SCCN12` (stereo not given) returned an IC50 in experiment [1] of more than 100 µM.
Still for that read-out and setting: then `O=C1c2ccccc2C2(c3ccc[nH]3)SCCN12` (stereo not given), with more than 100 µM.
Same read-out and setting: under `Cc1cccc(C23SCCN2C(=O)c2ccccc23)c1C` (stereo not given) stands 1.65 µM; under `Cc1cccc(C23SCCN2C(=O)c2ccccc23)c1` (stereo not given), 0.035 µM.
On to `O=C1c2ccccc2[C@@]2(c3ccccc3)SCCN12`, for which the IC50 is 0.28 µM in experiment [1] and 0.392 µM in experiment [2].
`O=C1c2ccccc2C2(c3cccc(Cl)c3)SCCN12` (stereo not given) came in with an IC50 in experiment [1] of 0.14 µM.
For `Cc1cccc([C@]23SCCN2C(=O)c2ccccc23)c1`, the results for the IC50 in experiment [1] and in experiment [2] were 0.035 µM and 0.051 µM, respectively.
In the case of `O=C1c2ccccc2C2(c3cccc(C(F)(F)F)c3)SCCN12` (stereo not given), the IC50 in experiment [1] turned out to be 1.05 µM.
In the case of `O=C1c2ccccc2C2(c3cccc([N+](=O)[O-])c3)SCCN12` (stereo not given), the IC50 in experiment [1] turned out to be 0.86 µM.
In experiment [1], `Cc1cccc2c1C(=O)N1CCSC21c1ccccc1` (stereo not given) came in with an IC50 of 8 µM.
The same measure, in the same setting: under `O=C1c2c(ccc3ccccc23)C2(c3ccccc3)SCCN12` (stereo not given) stands more than 100 µM.
Consider `O=C1c2cc(Cl)c(Cl)cc2C2(c3ccccc3)SCCN12` (stereo not given), for which the IC50 in experiment [1] came out at 4.48 µM.
`O=C1c2ccccc2C2(c3ccccc3)OCCN12` (stereo not given): 6.1 µM corresponded to half-maximal inhibition in experiment [1] (IC50).
In experiment [1], `Cc1ccc2c(c1)C(=O)N1CCSC21c1ccccc1` (stereo not given) registered an IC50 of 10 µM.
For `O=C1c2ccc(Cl)cc2C2(c3ccccc3)SCCN12` (stereo not given), in experiment [1], the IC50 is 0.19 µM.
For the molecule `Cc1cc(C)cc([C@]23SCCN2C(=O)c2ccccc23)c1`, the IC50 in experiment [1] came to 0.016 µM; in experiment [2] it was 0.01 µM.
`O=C1c2cc(Cl)ccc2C2(c3ccccc3)SCCN12` (stereo not given) yielded an IC50 in experiment [1] of 24 µM.
On to `Cc1ccnc(C23SCCN2C(=O)c2cccnc23)c1` (stereo not given), for which the IC50 in experiment [1] came out at 4.6 µM; in experiment [2], 7.8 µM.
In experiment [1], `Cc1cccc(C23SCCN2C(=O)c2cccnc23)n1` (stereo not given) had an IC50 of 6.6 µM.
Still for that read-out and setting: under `O=C1c2ccccc2C2(c3ccccc3)SCCN12` (stereo not given) stands 0.7 µM; under `O=C1c2cccnc2C2(c3ccccn3)SCCN12` (stereo not given), 23 µM; under `O=C1c2ccncc2C2(c3ccccc3)SCCN12` (stereo not given), 17 µM.
Same read-out and setting: then `COc1ccc2c(c1)C1(c3ccccc3)SCCN1C2=O` (stereo not given), with 3.6 µM; and `O=C1c2ccccc2C2(c3ccccc3)CCCCN12` (stereo not given), with 75.5 µM; and `O=C1c2ccccc2C2(c3ccccc3)N1CCS2(=O)=O` (stereo not given), with more than 10 µM.
The molecule `Cc1ccc(C23SCCN2C(=O)c2ccccc23)cc1C` (stereo not given) showed an IC50 in experiment [1] of 0.39 µM.
On to `N#Cc1cccc(C23SCCN2C(=O)c2ccccc23)c1` (stereo not given), for which it took 1.81 µM to reach half-maximal inhibition in experiment [1] (IC50).
The same measure, in the same setting: under `O=C1c2ccccc2C2(c3ccccc3)NCCCN12` (stereo not given) stands more than 10 µM; under `O=C1c2ccccc2C2(c3ccccc3)Sc3ccccc3CN12` (stereo not given), 40 µM; under `Cc1cc(C)cc(C23SCCN2C(=O)c2ccccc23)c1` (stereo not given), 0.084 µM.
Same read-out and setting: then `O=C1c2ccccc2C2(c3ccccc3)NCCN12` (stereo not given), with more than 100 µM; and `O=C1c2ccccc2C2(c3c4ccccc4cc4ccccc34)SCCN12` (stereo not given), with 0.9 µM; and `O=C1c2ccccc2C2(c3cccc4ccccc34)SCCN12` (stereo not given), with 0.13 µM.
Still for that read-out and setting: then `CC(C)c1cccc(C23SCCN2C(=O)c2ccccc23)c1` (stereo not given), with 2.1 µM.
Regarding `COC(=O)[C@H]1CSC2(c3ccccc3)c3ccccc3C(=O)N12` (stereo not given in full), in experiment [1], the IC50 stood at 0.22 µM.
`C[C@@H]1CN2C(=O)c3ccccc3C2(c2ccccc2)O1` (stereo not given in full) registered an IC50 in experiment [1] of 37.6 µM.
Still for that read-out and setting: then `COc1cccc(C23SCCN2C(=O)c2ccccc23)c1` (stereo not given), with 0.97 µM; and `COc1ccc(C23SCCN2C(=O)c2ccccc23)cc1` (stereo not given), with more than 30 µM; and `O=C1c2ccc(C(F)(F)F)cc2C2(c3ccccc3)SCCN12` (stereo not given), with 17.7 µM.
Same read-out and setting: then `O=C1c2ccccc2C2(c3ccccc3)SCCCN12` (stereo not given), with 2.2 µM.
The same measure, in the same setting: under `NC(=O)[C@H]1CSC2(c3ccccc3)c3ccccc3C(=O)N12` (stereo not given in full) stands 59 µM; under `O=C1c2ccccc2C2(c3cccc4c3CCC4)SCCN12` (stereo not given), 0.9 µM.
In experiment [2], `CC(C)=CCN1Cc2cccc3[nH]c(=S)n(c23)C[C@@H]1C` had an IC50 of 0.217 µM.
`O=C1c2cccc(Cl)c2C2(c3ccccc3)SCCN12` (stereo not given) registered an IC50 in experiment [1] of 0.29 µM.
Molecule `Cc1ccnc2c1NC(=O)c1cccnc1N2C1CC1` [NEVIRAPINE] gave an IC50 in experiment [2] of 0.303 µM.
Take `Cc1ccnc(C23SCCN2C(=O)c2ccccc23)c1` (stereo not given): 1 µM corresponded to half-maximal inhibition in experiment [1] (IC50).
Consider `O=C1c2ccccc2C2(c3cccnc3)SCCN12` (stereo not given), for which, in experiment [1], the IC50 is 28 µM.
For `O=C1c2cccnc2C2(c3ccccc3)SCCN12` (stereo not given), the IC50 in experiment [1] worked out at 3.45 µM.
Same read-out and setting: then `CC(C)c1ccc(C23SCCN2C(=O)c2ccccc23)cc1` (stereo not given), with 10 µM; and `O=C1c2cnccc2C2(c3ccccc3)SCCN12` (stereo not given), with more than 100 µM.
As to `O=C1c2ccc([N+](=O)[O-])cc2C2(c3ccccc3)SCCN12` (stereo not given), the IC50 in experiment [1] turned out to be 10 µM.
On the same count and under the same terms, then `S=C1c2ccccc2C2(c3ccccc3)SCCN12` (stereo not given), with 3.5 µM.
`CCNc1cccnc1N1CCN(C(=O)c2cc3cc(OC)ccc3[nH]2)CC1` [ATEVIRDINE MESYLATE]: in experiment [2], the midpoint of inhibition, the IC50, lay at 1.59 µM.
For the molecule `O=C1c2ccccc2C2(c3cc(Cl)cc(Cl)c3)SCCN12` (stereo not given), in experiment [1], the IC50 stood at 0.59 µM.
The same measure, in the same setting: under `Nc1ccc2c(c1)C1(c3ccccc3)SCCN1C2=O` (stereo not given) stands 4.5 µM.
On the same count and under the same terms, then `Cc1ccccc1C12SCCN1C(=O)c1ccccc12` (stereo not given), with 6.3 µM.
The same measure, in the same setting: then `O=C1c2ccccc2C2(c3ccccc3)OCCCN12` (stereo not given), with 51 µM.
On to `O=C1c2ccc(Cl)cc2[C@@]2(c3ccccc3)SCCN12`, for which the IC50 is 0.09 µM in experiment [1] and 0.074 µM in experiment [2].
As to `O=C1c2ccccc2C2(c3cccc(O)c3)SCCN12` (stereo not given), the IC50 in experiment [1] was found to be 12.7 µM.
As to `Cc1ccc(C)c(C23SCCN2C(=O)c2ccccc23)c1` (stereo not given), the IC50 in experiment [1] was 0.97 µM.
The molecule `O=C1c2ccccc2[C@]2(c3ccccc3)SCCN12` showed an IC50 in experiment [1] of 39.6 µM.
The same measure, in the same setting: under `O=C1c2ccccc2C2(c3ccccc3)N1CC[S+]2[O-]` (stereo not given) stands 1.45 µM; under `O=C1c2ccccc2C2(c3cccs3)SCCN12` (stereo not given), 2.65 µM; under `C[C@H]1CN2C(=O)c3ccccc3C2(c2ccccc2)O1` (stereo not given in full), more than 100 µM.
For the molecule `C[C@@H]1COC2(c3ccccc3)c3ccccc3C(=O)N12` (stereo not given in full), the IC50 in experiment [1] is 40 µM.
As to `Cc1ccc(C23SCCN2C(=O)c2ccccc23)cc1` (stereo not given), the IC50 in experiment [1] stood at 0.77 µM.
Still for that read-out and setting: under `O=C1c2ccccc2C2(c3ccccc3)CCCN12` (stereo not given) stands 15 µM.
On the same count and under the same terms, then `C[C@H]1COC2(c3ccccc3)c3ccccc3C(=O)N12` (stereo not given in full), with 73 µM.
Still for that read-out and setting: under `O=C1c2ccccc2C2(c3ccccn3)SCCN12` (stereo not given) stands 5.85 µM; under `Nc1cccc(C23SCCN2C(=O)c2ccccc23)c1` (stereo not given), 4.6 µM; under `O=C1c2ccccc2C2(c3ccncc3)SCCN12` (stereo not given), more than 30 µM.
Consider `Cc1ccc2c(c1)C1(c3ccccc3)SCCN1C2=O` (stereo not given), for which, in experiment [1], the IC50 came out at 0.72 µM.
